Experimental data taken from patent US9718774B2, “Indole carboxamide derivatives as P2X7 receptor antagonist” (ACTELION PHARMACEUTICALS LTD, priority 2012, dated 2017).

Target: T1, human recombinant P2X7 receptor (Homo sapiens, UniProt Q99572)
T1 construct: expressed in transfected cells
T1 sequence (Q99572 1-595): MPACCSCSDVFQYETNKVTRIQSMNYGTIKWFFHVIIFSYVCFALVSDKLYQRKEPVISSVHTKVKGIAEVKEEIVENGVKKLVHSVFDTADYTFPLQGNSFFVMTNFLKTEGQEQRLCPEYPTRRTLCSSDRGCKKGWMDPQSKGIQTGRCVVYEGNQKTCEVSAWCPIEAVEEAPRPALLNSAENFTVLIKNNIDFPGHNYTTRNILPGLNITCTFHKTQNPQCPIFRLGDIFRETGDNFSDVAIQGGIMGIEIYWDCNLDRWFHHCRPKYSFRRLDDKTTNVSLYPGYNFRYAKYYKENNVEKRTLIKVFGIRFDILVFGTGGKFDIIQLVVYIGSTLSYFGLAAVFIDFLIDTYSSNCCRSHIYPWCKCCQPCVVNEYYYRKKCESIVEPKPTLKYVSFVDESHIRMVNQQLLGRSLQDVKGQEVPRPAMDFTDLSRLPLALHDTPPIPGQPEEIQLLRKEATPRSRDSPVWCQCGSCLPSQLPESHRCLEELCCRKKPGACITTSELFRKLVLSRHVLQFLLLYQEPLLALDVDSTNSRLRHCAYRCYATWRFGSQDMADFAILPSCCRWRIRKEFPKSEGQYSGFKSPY
Experiment: YO-PRO assay: P2X7 receptor antagonistic activity in HEK cells stably expressing P2X7
Format: cell-based
Details: antagonistic activity with respect to the P2X7 receptor, read-out: IC50
Procedure, shortened: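 HEK cells stably transfected with human P2X7 (cloned from blood cDNA) were loaded with 0.5 μM YO-PRO-1. They were exposed to antagonist (10 concentrations, top 10 μM, 1/3 steps, duplicate) together with 250 μM ATP for 90 min, and dye uptake was read by FLIPR at ex 485/em 530. IC50 from maximum fluorescence versus concentration.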

Structure (SMILES) | IC50
Cc1ncc(C(CNC(=O)c2ccc3[nH]ccc3c2Cl)NC2CCCC2)cn1 (racemic) [Example 83, rac-4-Chloro-1H-indole-5-carboxylic acid [2-cyclopentylamino-2-(2-methyl-pyrimidin-5-yl)-ethyl]-amide] | 162 nM
Cc1ncc(C(CNC(=O)c2ccc3[nH]ccc3c2Cl)NCC2CCCC2)cn1 (racemic) [Example 84, rac-4-Chloro-1H-indole-5-carboxylic acid [2-(cyclopentylmethyl-amino)-2-(2-methyl-pyrimidin-5-yl)-ethyl]-amide] | 1470 nM
Cc1ncc(C(CNC(=O)c2ccc3[nH]ccc3c2Cl)NCC(C)C)cn1 (racemic) [Example 85, rac-4-Chloro-1H-indole-5-carboxylic acid [2-isobutylamino-2-(2-methyl-pyrimidin-5-yl)-ethyl]-amide] | 303 nM
Cc1ncc(C(CNC(=O)c2ccc3[nH]ccc3c2Cl)N(C)CC(C)C)cn1 (racemic) [Example 86, rac-4-Chloro-1H-indole-5-carboxylic acid [2-(isobutyl-methyl-amino)-2-(2-methyl-pyrimidin-5-yl)-ethyl]-amide] | 280 nM
Cc1ncc(C(CNC(=O)c2ccc3[nH]ccc3c2Cl)N(C)Cc2ccccc2)cn1 (racemic) [Example 87, rac-4-Chloro-1H-indole-5-carboxylic acid [2-(benzyl-methyl-amino)-2-(2-methyl-pyrimidin-5-yl)-ethyl]-amide] | 2650 nM
CCC(CC)C(CNC(=O)c1ccc2[nH]ccc2c1Cl)c1cncnc1 (racemic) [Example 88, rac-4-Chloro-1H-indole-5-carboxylic acid (3-ethyl-2-pyrimidin-5-yl-pentyl)-amide] | 15 nM
Cc1ncc(C(CNC(=O)c2ccc3[nH]ccc3c2Cl)N2CCN(C(=O)OC(C)(C)C)CC2)cn1 (racemic) [Example 89, rac-4-[2-[(4-Chloro-1H-indole-5-carbonyl)-amino]-1-(2-methyl-pyrimidin-5-yl)-ethyl]-piperazine-1-carboxylic acid tert-butyl ester] | 277 nM
O=C(NCC(c1cccnn1)N1CCOCC1)c1ccc2[nH]ccc2c1Cl (racemic) [Example 90, rac-4-Chloro-1H-indole-5-carboxylic acid (2-morpholin-4-yl-2-pyridazin-3-yl-ethyl)-amide] | 1620 nM
O=C(NCC(c1ccnc(O)c1)N1CCOCC1)c1ccc2[nH]ccc2c1Cl (racemic) [Example 91, rac-4-Chloro-1H-indole-5-carboxylic acid [2-morpholin-4-yl-2-(2-hydroxypyridin-4-yl)-ethyl]-amide] | 353 nM
Cc1ncc(C(CNC(=O)c2ccc3[nH]ccc3c2Cl)N2CCS(=O)(=O)CC2)cn1 (racemic) [Example 92, rac-4-Chloro-1H-indole-5-carboxylic acid [2-(1,1-dioxo-thiomorpholin-4-yl)-2-(2-methyl-pyrimidin-5-yl)-ethyl]-amide] | 98 nM
Cc1ncc(C(CNC(=O)c2ccc3[nH]ccc3c2Cl)C2CCC(F)(F)CC2)cn1 (racemic) [Example 93, rac-4-Chloro-1H-indole-5-carboxylic acid [2-(4,4-difluoro-cyclohexyl)-2-(2-methyl-pyrimidin-5-yl)-ethyl]-amide] | 12 nM
Cc1ncc(C(CNC(=O)c2c(Cl)cc3[nH]ccc3c2Cl)N2CCOCC2)cn1 (racemic) [Example 94, rac-4,6-Dichloro-1H-indole-5-carboxylic acid [2-(2-methyl-pyrimidin-5-yl)-2-morpholin-4-yl-ethyl]-amide] | 211 nM
Cc1ncc(C(CNC(=O)c2cc(CC(C)C)c3[nH]ccc3c2Cl)N2CCOCC2)cn1 (racemic) [Example 98, rac-4-Chloro-7-isobutyl-1H-indole-5-carboxylic acid [2-(2-methyl-pyrimidin-5-yl)-2-morpholin-4-yl-ethyl]-amide] | 10 nM
COCCCc1cc(C(=O)NCC(c2cnc(C)nc2)N2CCOCC2)c(Cl)c2cc[nH]c12 (racemic) [Example 99, rac-4-Chloro-7-(3-methoxy-propyl)-1H-indole-5-carboxylic acid [2-(2-methyl-pyrimidin-5-yl)-2-morpholin-4-yl-ethyl]-amide] | 21 nM
Cc1ncc(C(CNC(=O)c2ccc3[nH]ccc3c2C)N2CCOCC2)cn1 (racemic) [Example 100, rac-4-Methyl-1H-indole-5-carboxylic acid [2-(2-methyl-pyrimidin-5-yl)-2-morpholin-4-yl-ethyl]-amide] | 19 nM
CCc1c(C(=O)NCC(c2cnc(C)nc2)N2CCOCC2)ccc2[nH]ccc12 (racemic) [Example 101, rac-4-Ethyl-1H-indole-5-carboxylic acid [2-(2-methyl-pyrimidin-5-yl)-2-morpholin-4-yl-ethyl]-amide] | 30 nM
CC(=O)c1cc(C(=O)NCC(c2cnc(C)nc2)N2CCOCC2)c(Cl)c2cc[nH]c12 (racemic) [Example 102, rac-7-Acetyl-4-chloro-1H-indole-5-carboxylic acid [2-(2-methyl-pyrimidin-5-yl)-2-morpholin-4-yl-ethyl]-amide] | 33 nM
Cc1ncc(C(CNC(=O)c2cc(C)c3[nH]ccc3c2C(F)(F)F)N2CCOCC2)cn1 (racemic) [Example 103, rac-7-Methyl-4-trifluoromethyl-1H-indole-5-carboxylic acid [2-(2-methyl-pyrimidin-5-yl)-2-morpholin-4-yl-ethyl]-amide] | 26 nM
Cc1ncc(C(CNC(=O)c2cc(C)c3[nH]ccc3c2C)N2CCOCC2)cn1 (racemic) [Example 104, rac-4,7-Dimethyl-1H-indole-5-carboxylic acid [2-(2-methyl-pyrimidin-5-yl)-2-morpholin-4-yl-ethyl]-amide] | 35 nM
CCc1cc(C(=O)NCC(c2cnc(C)nc2)N2CCOCC2)c(Cl)c2cc[nH]c12 (racemic) [Example 107, rac-4-Chloro-7-ethyl-1H-indole-5-carboxylic acid [2-(2-methyl-pyrimidin-5-yl)-2-morpholin-4-yl-ethyl]-amide] | 15 nM
Cc1ncc(C(CNC(=O)c2cc(Cl)c3[nH]ccc3c2C)N2CCOCC2)cn1 (racemic) [Example 108, rac-7-Chloro-4-methyl-1H-indole-5-carboxylic acid [2-(2-methyl-pyrimidin-5-yl)-2-morpholin-4-yl-ethyl]-amide] | 11 nM
COc1cc(C(=O)NCC(c2cnc(C)nc2)N2CCOCC2)c(C)c2cc[nH]c12 (racemic) [Example 109, rac-7-Methoxy-4-methyl-1H-indole-5-carboxylic acid [2-(2-methyl-pyrimidin-5-yl)-2-morpholin-4-yl-ethyl]-amide] | 25 nM
CCOc1cc(C(=O)NCC(c2cnc(C)nc2)N2CCOCC2)c(Cl)c2cc[nH]c12 (racemic) [Example 110, rac-4-Chloro-7-ethoxy-1H-indole-5-carboxylic acid [2-(2-methyl-pyrimidin-5-yl)-2-morpholin-4-yl-ethyl]-amide] | 13 nM
CCCc1cc(C(=O)NCC(c2cnc(C)nc2)N2CCOCC2)c(Cl)c2cc[nH]c12 (racemic) [Example 111, rac-4-Chloro-7-propyl-1H-indole-5-carboxylic acid [2-(2-methyl-pyrimidin-5-yl)-2-morpholin-4-yl-ethyl]-amide] | 18 nM
Cc1ncc(C(CNC(=O)c2cc(OCCOC(C)(C)C)c3[nH]ccc3c2Cl)N2CCOCC2)cn1 (racemic) [Example 112, rac-7-(2-tert-Butoxy-ethoxy)-4-chloro-1H-indole-5-carboxylic acid [2-(2-methyl-pyrimidin-5-yl)-2-morpholin-4-yl-ethyl]-amide] | 32 nM
Cc1ncc(C(CNC(=O)c2cc(OCCO)c3[nH]ccc3c2Cl)N2CCOCC2)cn1 (racemic) [Example 113, rac-4-Chloro-7-(2-hydroxy-ethoxy)-1H-indole-5-carboxylic acid [2-(2-methyl-pyrimidin-5-yl)-2-morpholin-4-yl-ethyl]-amide] | 21 nM
Cc1ncc(C(CNC(=O)c2cc(C(C)(C)O)c3[nH]ccc3c2Cl)N2CCOCC2)cn1 (racemic) [Example 116, rac-4-Chloro-7-(1-hydroxy-1-methyl-ethyl)-1H-indole-5-carboxylic acid [2-(2-methyl-pyrimidin-5-yl)-2-morpholin-4-yl-ethyl]-amide] | 149 nM
Cc1ncc(C(CNC(=O)c2cc(F)c3[nH]ccc3c2F)N2CCOCC2)cn1 (racemic) [Example 117, rac-4,7-Difluoro-1H-indole-5-carboxylic acid [2-(2-methyl-pyrimidin-5-yl)-2-morpholin-4-yl-ethyl]-amide] | 118 nM
COc1cc(C(=O)NCC(c2cnc(C)nc2)N2CCOCC2)c(F)c2cc[nH]c12 (racemic) [Example 118, rac-4-Fluoro-7-methoxy-1H-indole-5-carboxylic acid [2-(2-methyl-pyrimidin-5-yl)-2-morpholin-4-yl-ethyl]-amide] | 20 nM
Cc1ncc(C(CNC(=O)c2ccc3[nH]ccc3c2Cl)N2CCOCC2)cn1 (single isomer, unassigned) [Example 3, 4-Chloro-1H-indole-5-carboxylic acid [2-(2-methyl-pyrimidin-5-yl)-2-morpholin-4-yl-ethyl]-amide] | 7.9 nM
